{
  "source": "patent US12390486B2",
  "about": "“Method for treating diastolic heart failure by inhibiting galectin-3” (Henry Ford Health System, priority 2012, dated 2025)",
  "test_system": "dogs with microembolization-induced HF",
  "test": "LacNAc in dogs with microembolization-induced HF (Example 2)",
  "type": "in vivo, dog",
  "conditions": "for VFIF (LV Volume fraction of interstitial fibrosis) / ODD (Oxygen diffusion distance) / VFRF (LV volume fraction of replacement fibrosis) / MCSA (myocyte cross-sectional area) / Cap/mm^2 (Capillary density) / Cardiac Output / PE/PA / Ei/Ai / Stroke Volume / Left Ventricular Fractional Area of Shortening / Left Ventricular Ejection Fraction / Left Ventricular End-Systolic Volume / Left Ventricular End-Diastolic Volume / Diastolic Aortic Pressure / Mean Aortic Pressure / Heart Rate / Systolic Aortic Pressure / DT / Systemic Vascular Resistance: individual dogs and Mean (n=3); for VFIF (LV Volume fraction of interstitial fibrosis): historical controls mean 12.95; for ODD (Oxygen diffusion distance): historical controls mean 13.10; for VFRF (LV volume fraction of replacement fibrosis): historical controls mean 13.8; for MCSA (myocyte cross-sectional area): historical controls mean 575; for Cap/mm^2 (Capillary density): historical controls mean 2063; for Cardiac Output / PE/PA / Ei/Ai / Stroke Volume / Left Ventricular Fractional Area of Shortening / Left Ventricular Ejection Fraction / Left Ventricular End-Systolic Volume / Left Ventricular End-Diastolic Volume / Diastolic Aortic Pressure / Mean Aortic Pressure / Heart Rate / Systolic Aortic Pressure / DT / Systemic Vascular Resistance: 115 mg LacNAc oral daily, 12 weeks; for Cardiac Output: PRE mean 1.41; for PE/PA: PRE mean 1.80; for Ei/Ai: PRE mean 2.98; for Stroke Volume: PRE mean 17; for Left Ventricular Fractional Area of Shortening: PRE mean 28.3; for Left Ventricular Ejection Fraction: PRE mean 30; for Left Ventricular End-Systolic Volume: PRE mean 39; for Left Ventricular End-Diastolic Volume: PRE mean 56; for Diastolic Aortic Pressure: PRE mean 62; for Mean Aortic Pressure: PRE mean 73; for Heart Rate: PRE mean 84; for Systolic Aortic Pressure: PRE mean 87; for DT: PRE mean 131; for Systemic Vascular Resistance: PRE mean 4209",
  "description": "In this dog model of HF, the development of the disease is associated with an increase in the volume fraction of interstitial fibrosis in the left ventricular wall from a normal level of 3.5% (connective tissue) to as high as 25%. Dogs were treated for 3 months with daily oral administration of 115 mg of LacNAc. […] This finding is similar to that observed with MCP (Example 1), as illustrated in FIG. 2. […] All of these findings support a marked improvement of LV function and cellular remodeling sought for treatment of HFpEF.",
  "key": {"[1]": {"conditions": "115 mg LacNAc oral daily for 3 months, 3 dogs"}, "[2]": {"conditions": "115 mg LacNAc oral daily for 3 months"}, "[3]": {"conditions": "115 mg LacNAc oral daily for 3 months, mean"}},
  "note": "Several values for one entry are separate records, joined by “and”; a condition that tells them apart may be missing. Identical values can stand only once.",
  "data": [
    {"compound": "CC(=O)N[C@H]1C(O)O[C@H](CO)[C@@H](O[C@@H]2O[C@H](CO)[C@H](O)[C@H](O)[C@H]2O)[C@@H]1O", "note": "(stereo partly drawn) [LacNAc, N-acetyl-D-lactosamine]", "values": [
      {"measurement": "LV ejection fraction", "setting": "[1]", "result": "improved LV ejection fraction"},
      {"measurement": "LV relaxation (Ei/Ai, PE/PA and DT)", "setting": "[1]", "result": "improved LV relaxation"},
      {"measurement": "capillary density", "setting": "[1]", "result": "increased capillary density"},
      {"measurement": "myocyte hypertrophy", "setting": "[1]", "result": "decreased myocyte hypertrophy"},
      {"measurement": "oxygen diffusion", "setting": "[1]", "result": "increased oxygen diffusion"},
      {"measurement": "stroke volume and cardiac output", "setting": "[1]", "result": "increased stroke volume and cardiac output"},
      {"measurement": "reduction of reactive interstitial fibrosis", "setting": "115 mg LacNAc oral daily for 3 months, 3 dogs, compared to historical untreated controls matched for LV ejection fraction, gender, duration of heart failure", "result": "~57", "unit": "%"},
      {"measurement": "VFIF (LV Volume fraction of interstitial fibrosis)", "setting": "[2]", "result": "5.27% (2×) and 6.07%"},
      {"measurement": "VFIF (LV Volume fraction of interstitial fibrosis)", "setting": "[3]", "result": 5.54, "unit": "%"},
      {"measurement": "ODD (Oxygen diffusion distance)", "setting": "[2]", "result": "9.18 μm and 9.48 μm and 9.11 μm"},
      {"measurement": "ODD (Oxygen diffusion distance)", "setting": "[3]", "result": 9.26, "unit": "μm"},
      {"measurement": "VFRF (LV volume fraction of replacement fibrosis)", "setting": "[2]", "result": "10.4% and 13.6% and 13.8%"},
      {"measurement": "VFRF (LV volume fraction of replacement fibrosis)", "setting": "[3]", "result": 12.6, "unit": "%"},
      {"measurement": "MCSA (myocyte cross-sectional area)", "setting": "[2]", "result": "373 μm^2 and 393 μm^2 and 418 μm^2"},
      {"measurement": "MCSA (myocyte cross-sectional area)", "setting": "[3]", "result": 395, "unit": "μm^2"},
      {"measurement": "Cap/mm^2 (Capillary density)", "setting": "[2]", "result": "2989 Cap/mm^2 and 2977 Cap/mm^2 and 3042 Cap/mm^2"},
      {"measurement": "Cap/mm^2 (Capillary density)", "setting": "[3]", "result": 3002, "unit": "Cap/mm^2"},
      {"measurement": "Cardiac Output", "result": "2.02 L/min and 1.80 L/min and 1.67 L/min"},
      {"measurement": "Cardiac Output", "setting": "mean", "result": 1.83, "unit": "L/min"},
      {"measurement": "PE/PA", "result": "1.82 and 2.52 and 1.84"},
      {"measurement": "PE/PA", "setting": "mean", "result": 2.06},
      {"measurement": "Ei/Ai", "result": "4.26 and 4.43 and 3.25"},
      {"measurement": "Ei/Ai", "setting": "mean", "result": 3.98},
      {"measurement": "Stroke Volume", "result": "24 mL and 20 mL and 19 mL"},
      {"measurement": "Stroke Volume", "setting": "mean", "result": 21, "unit": "mL"},
      {"measurement": "Left Ventricular Fractional Area of Shortening", "result": "31% and 41% and 29%"},
      {"measurement": "Left Ventricular Fractional Area of Shortening", "setting": "mean", "result": 33.7, "unit": "%"},
      {"measurement": "Left Ventricular Ejection Fraction", "result": "42% and 38% and 31%"},
      {"measurement": "Left Ventricular Ejection Fraction", "setting": "mean", "result": 37, "unit": "%"},
      {"measurement": "Left Ventricular End-Systolic Volume", "result": "33 ml (2×) and 43 ml"},
      {"measurement": "Left Ventricular End-Systolic Volume", "setting": "mean", "result": 36, "unit": "mL"},
      {"measurement": "Left Ventricular End-Diastolic Volume", "result": "57 mL and 53 mL and 62 mL"},
      {"measurement": "Left Ventricular End-Diastolic Volume", "setting": "mean", "result": 57, "unit": "mL"},
      {"measurement": "Diastolic Aortic Pressure", "result": "60 mmHg and 67 mmHg and 62 mmHg"},
      {"measurement": "Diastolic Aortic Pressure", "setting": "mean", "result": 63, "unit": "mmHg"},
      {"measurement": "Mean Aortic Pressure", "result": "72 mmHg and 76 mmHg and 73 mmHg"},
      {"measurement": "Mean Aortic Pressure", "setting": "mean", "result": 74, "unit": "mmHg"},
      {"measurement": "Heart Rate", "result": "84 beats/min and 90 beats/min and 88 beats/min"},
      {"measurement": "Heart Rate", "setting": "mean", "result": 87, "unit": "beats/min"},
      {"measurement": "Systolic Aortic Pressure", "result": "88 mmHg (2×) and 90 mmHg"},
      {"measurement": "Systolic Aortic Pressure", "setting": "mean", "result": 89, "unit": "mmHg"},
      {"measurement": "DT", "result": "162 msec (2×) and 115 msec"},
      {"measurement": "DT", "setting": "mean", "result": 146, "unit": "ms"},
      {"measurement": "Systemic Vascular Resistance", "result": "2857 dynes-sec-cm^-5 and 3378 dynes-sec-cm^-5 and 3493 dynes-sec-cm^-5"},
      {"measurement": "Systemic Vascular Resistance", "setting": "mean", "result": 3243, "unit": "dynes-sec-cm^-5"}
    ]}
  ]
}
